{
  "source": "paper PMC12827894",
  "about": "“Structure-guided design of picomolar-level macrocyclic TRPC5 channel inhibitors with antidepressant activity” (Acta Pharmaceutica Sinica. B, 2025)",
  "key": {"δOR": {"target": "T1, δOR (Homo sapiens, UniProt P41143)", "T1 construct": "purchased ICE Bioscience ICESTP™ SafetyOne44 Panel", "T1 sequence (P41143 whole entry)": "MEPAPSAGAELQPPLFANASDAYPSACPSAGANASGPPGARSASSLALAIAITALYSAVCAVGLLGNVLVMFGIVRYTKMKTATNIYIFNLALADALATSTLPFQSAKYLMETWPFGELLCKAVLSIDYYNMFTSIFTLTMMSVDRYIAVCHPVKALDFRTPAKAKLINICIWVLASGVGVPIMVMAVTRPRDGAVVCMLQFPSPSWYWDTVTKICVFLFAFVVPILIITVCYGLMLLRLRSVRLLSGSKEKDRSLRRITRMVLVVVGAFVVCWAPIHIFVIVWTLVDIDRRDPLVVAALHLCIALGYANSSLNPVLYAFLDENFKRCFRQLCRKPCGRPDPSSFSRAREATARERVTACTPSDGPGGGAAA", "experiment": "cell-based", "assay_type": "cell-based"}, "C57BL/6J mice [1]": {"system": "C57BL/6J mice", "experiment": "m-CPP-induced anxiety model, elevated plus maze", "assay_type": "in vivo", "settings": "10 mg/kg p.o."}, "TRPC1/5": {"target": "T2, TRPC1/5 (Homo sapiens, UniProt P48995+Q9UL62)", "T2 construct": "full-length wild-type or mutant TRPC5 was cloned into a pcDNA3.1 vector; expressed in transfected cells; host or cells: HEK293T", "experiment": "Whole-cell patch-clamp, TRPC1/5 heteromer, 100 nmol/L EA", "assay_type": "cell-based", "settings": "read-out: IC50, TRPC1/5", "source_text": "(§1) Given that TRPC4 and TRPC5 are highly similar and often form heteromeric with TRPC1, we evaluated JDIC-127's activity on TRPC4, TRPC1/4, and TRPC1/5 using whole-cell patch-clamp recordings under agonist stimulation with 100 nmol/L EA in HEK293T cells. […].\n(§2) For electrophysiological activity testing of compounds against TRPC4 and TRPC5, stably expressed TRPC5 or TRPC4 cells were used for whole-cell patch-clamp recordings, employing a HEKA EPC10 amplifier and […] software (https://www.heka.com/downloads/downloads_main.html#down_patchmaster). Prior to recording, cells were induced with 1 μg/mL tetracycline for 24 h. For TRPC1/4 or TRPC1/5 heteromers, plasmids TRPC1 and TRPC5 or TRPC1 and TRPC4 were co-transfected into HEK293T cells. After 48 to 72 h of transfection, testing was performed. A 1-s ramp protocol from −100 to +100 mV at 0.2 Hz was applied, as previously described. The extracellular solution consisted of 140 mmol/L NaCl, 1 mmol/L MgCl2, 2 mmol/L CaCl2, 10 mmol/L Hepes, 5 mmol/L KCl, and 10 mmol/L D-glucose, with pH adjusted to 7.4 using NaOH. […] The half-maximal inhibitory concentration (IC50) of drugs was determined by recording currents at a +100 mV pulse and analyzing current amplitudes at varying drug concentrations, with IC50 values calculated using the Hill equation. […]"}, "β1": {"target": "T3, β1 (Homo sapiens, UniProt P08588)", "T3 construct": "purchased ICE Bioscience ICESTP™ SafetyOne44 Panel", "T3 sequence (P08588 whole entry)": "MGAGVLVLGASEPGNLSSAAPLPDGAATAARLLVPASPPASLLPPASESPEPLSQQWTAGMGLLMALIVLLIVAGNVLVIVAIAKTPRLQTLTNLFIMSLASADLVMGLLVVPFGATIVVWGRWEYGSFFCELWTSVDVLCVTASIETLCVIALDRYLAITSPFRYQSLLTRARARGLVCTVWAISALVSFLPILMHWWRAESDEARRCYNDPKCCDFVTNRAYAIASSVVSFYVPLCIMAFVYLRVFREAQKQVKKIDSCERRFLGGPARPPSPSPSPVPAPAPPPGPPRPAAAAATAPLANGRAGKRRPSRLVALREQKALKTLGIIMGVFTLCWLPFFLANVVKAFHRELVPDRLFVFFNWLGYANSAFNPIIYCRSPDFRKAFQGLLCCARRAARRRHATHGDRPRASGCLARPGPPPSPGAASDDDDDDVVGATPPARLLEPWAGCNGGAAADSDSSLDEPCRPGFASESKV", "experiment": "SafetyOne44 panel: β1", "assay_type": "cell-based"}, "hERG": {"target": "hERG (Homo sapiens, UniProt Q12809)", "settings": "10 μmol/L, patch-clamp"}, "CB1": {"target": "T4, CB1 (Homo sapiens, UniProt P21554)", "T4 construct": "purchased ICE Bioscience ICESTP™ SafetyOne44 Panel", "T4 sequence (P21554 whole entry)": "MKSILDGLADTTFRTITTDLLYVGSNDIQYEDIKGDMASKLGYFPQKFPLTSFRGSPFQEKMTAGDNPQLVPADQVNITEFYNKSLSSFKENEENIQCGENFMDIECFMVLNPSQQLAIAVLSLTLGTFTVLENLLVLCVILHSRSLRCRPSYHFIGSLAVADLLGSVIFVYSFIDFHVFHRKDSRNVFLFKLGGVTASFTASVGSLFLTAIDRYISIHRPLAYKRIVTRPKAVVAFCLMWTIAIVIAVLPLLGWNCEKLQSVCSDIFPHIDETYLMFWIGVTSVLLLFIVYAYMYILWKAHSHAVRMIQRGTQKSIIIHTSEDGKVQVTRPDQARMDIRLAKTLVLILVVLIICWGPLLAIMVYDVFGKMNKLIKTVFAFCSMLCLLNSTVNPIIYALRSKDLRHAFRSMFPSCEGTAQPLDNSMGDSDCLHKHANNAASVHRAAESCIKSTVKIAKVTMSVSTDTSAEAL", "experiment": "cell-based", "assay_type": "cell-based"}, "5-HT2B": {"target": "T5, 5-HT2B (Homo sapiens, UniProt P41595)", "T5 construct": "purchased ICE Bioscience ICESTP SafetyOne44 Panel", "T5 sequence (P41595 whole entry)": "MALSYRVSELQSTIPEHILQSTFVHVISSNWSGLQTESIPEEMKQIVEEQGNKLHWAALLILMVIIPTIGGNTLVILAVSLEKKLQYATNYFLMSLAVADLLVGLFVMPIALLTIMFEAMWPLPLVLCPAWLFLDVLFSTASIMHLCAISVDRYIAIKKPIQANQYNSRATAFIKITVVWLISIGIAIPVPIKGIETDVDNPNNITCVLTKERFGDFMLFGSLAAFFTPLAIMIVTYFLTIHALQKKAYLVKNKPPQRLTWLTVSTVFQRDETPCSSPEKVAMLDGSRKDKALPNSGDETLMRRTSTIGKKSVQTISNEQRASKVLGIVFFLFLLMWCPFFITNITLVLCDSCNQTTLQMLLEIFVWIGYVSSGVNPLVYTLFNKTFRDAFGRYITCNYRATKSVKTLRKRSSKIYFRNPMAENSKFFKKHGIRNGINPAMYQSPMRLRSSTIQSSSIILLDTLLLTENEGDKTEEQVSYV", "experiment": "cell-based", "assay_type": "cell-based", "settings": "5-HT2B, 10 μmol/L"}, "TRPM3": {"target": "TRPM3 (Homo sapiens, UniProt Q9HCF6)", "experiment": "Patch-clamp selectivity, TRPM3", "assay_type": "cell-based", "settings": "10 μmol/L"}, "μOR": {"target": "T6, μOR (Homo sapiens, UniProt P35372)", "T6 construct": "purchased ICE Bioscience ICESTP™ SafetyOne44 Panel", "experiment": "cell-based", "settings": "antagonist mode, 10 μmol/L, read-out: Antagonist JDIC-127 @10 μmol/L"}, "C57BL/6J mice [2]": {"system": "C57BL/6J mice", "experiment": "CCK-4-induced anxiety model, elevated plus maze", "assay_type": "in vivo", "settings": "CCK-4 model, 10 mg/kg p.o."}, "CB2": {"target": "T7, CB2 (Homo sapiens, UniProt P34972)", "T7 construct": "purchased ICE Bioscience ICESTP™ SafetyOne44 Panel", "experiment": "cell-based", "assay_type": "cell-based"}, "NR1/NR2B": {"target": "T8, NR1/NR2B (Homo sapiens, UniProt Q05586+Q13224)", "T8 construct": "ICE Bioscience ICESTP SafetyOne44 Panel", "T8 sequence (Q13224 27-1484, other chains not shown)": "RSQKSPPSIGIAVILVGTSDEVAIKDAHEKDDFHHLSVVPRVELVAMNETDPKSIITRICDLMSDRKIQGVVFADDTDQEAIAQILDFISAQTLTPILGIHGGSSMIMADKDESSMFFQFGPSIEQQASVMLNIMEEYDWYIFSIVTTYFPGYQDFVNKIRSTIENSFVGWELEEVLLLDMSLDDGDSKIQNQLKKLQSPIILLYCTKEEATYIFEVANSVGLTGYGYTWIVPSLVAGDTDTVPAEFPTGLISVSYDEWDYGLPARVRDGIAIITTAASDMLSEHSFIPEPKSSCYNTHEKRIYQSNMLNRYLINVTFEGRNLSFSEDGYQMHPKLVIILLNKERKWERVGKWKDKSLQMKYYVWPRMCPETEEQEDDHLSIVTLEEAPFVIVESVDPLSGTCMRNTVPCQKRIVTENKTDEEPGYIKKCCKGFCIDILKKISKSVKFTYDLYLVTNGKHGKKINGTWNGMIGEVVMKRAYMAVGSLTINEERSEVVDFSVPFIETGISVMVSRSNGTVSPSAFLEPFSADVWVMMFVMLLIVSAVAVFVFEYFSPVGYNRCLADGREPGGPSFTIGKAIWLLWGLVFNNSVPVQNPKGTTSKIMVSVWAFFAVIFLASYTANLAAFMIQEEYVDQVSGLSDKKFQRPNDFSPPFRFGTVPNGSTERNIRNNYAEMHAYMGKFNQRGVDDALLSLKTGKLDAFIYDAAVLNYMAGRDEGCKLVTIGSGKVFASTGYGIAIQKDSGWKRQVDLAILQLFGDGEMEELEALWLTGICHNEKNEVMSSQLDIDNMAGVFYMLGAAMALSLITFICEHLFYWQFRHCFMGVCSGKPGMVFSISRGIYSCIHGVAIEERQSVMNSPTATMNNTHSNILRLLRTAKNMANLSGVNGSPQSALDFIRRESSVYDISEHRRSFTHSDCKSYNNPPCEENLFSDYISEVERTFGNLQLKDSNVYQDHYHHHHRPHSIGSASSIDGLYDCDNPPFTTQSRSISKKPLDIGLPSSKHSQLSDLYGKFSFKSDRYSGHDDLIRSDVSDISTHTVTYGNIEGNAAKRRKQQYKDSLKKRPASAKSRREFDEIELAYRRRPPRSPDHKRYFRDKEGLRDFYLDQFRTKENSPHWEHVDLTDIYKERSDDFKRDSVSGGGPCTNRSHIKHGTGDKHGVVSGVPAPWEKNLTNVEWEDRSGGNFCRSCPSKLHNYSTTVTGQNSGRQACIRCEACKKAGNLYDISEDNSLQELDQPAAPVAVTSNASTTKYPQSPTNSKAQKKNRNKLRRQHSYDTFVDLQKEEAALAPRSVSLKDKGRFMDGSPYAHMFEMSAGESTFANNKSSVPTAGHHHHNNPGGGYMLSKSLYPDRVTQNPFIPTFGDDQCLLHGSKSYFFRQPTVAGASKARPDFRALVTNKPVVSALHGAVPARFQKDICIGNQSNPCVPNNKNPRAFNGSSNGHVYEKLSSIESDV", "experiment": "SafetyOne44 panel ion channels: NR1/NR2B", "assay_type": "cell-based", "settings": "NR1/NR2B, 5 μmol/L"}, "NET": {"target": "T9, NET (Homo sapiens, UniProt P23975)", "T9 construct": "ICE Bioscience ICESTP SafetyOne44 Panel", "experiment": "SafetyOne44 panel: NET", "assay_type": "cell-based", "settings": "NET, 10 μmol/L; read-out: Antagonist JDIC-127 @10 μmol/L"}, "D1": {"target": "T10, D1 (Homo sapiens, UniProt P21728)", "T10 construct": "purchased ICE Bioscience ICESTP™ SafetyOne44 Panel", "T10 sequence (P21728 whole entry)": "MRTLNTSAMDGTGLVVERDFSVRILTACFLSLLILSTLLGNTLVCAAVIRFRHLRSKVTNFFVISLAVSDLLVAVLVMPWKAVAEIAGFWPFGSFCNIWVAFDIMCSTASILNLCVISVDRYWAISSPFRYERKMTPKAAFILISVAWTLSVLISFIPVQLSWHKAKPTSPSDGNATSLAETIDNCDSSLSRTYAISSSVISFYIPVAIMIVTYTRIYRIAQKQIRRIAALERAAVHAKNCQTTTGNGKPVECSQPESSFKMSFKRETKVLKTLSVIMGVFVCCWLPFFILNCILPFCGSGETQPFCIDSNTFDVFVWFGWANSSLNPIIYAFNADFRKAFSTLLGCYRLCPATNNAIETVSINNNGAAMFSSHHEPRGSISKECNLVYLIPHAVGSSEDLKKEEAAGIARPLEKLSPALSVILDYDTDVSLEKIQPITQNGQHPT", "experiment": "cell-based", "assay_type": "cell-based"}, "[3]": {"system": "44 clinically safety-related targets"}, "C57BL/6 mice": {"system": "C57BL/6 mice", "experiment": "Forced swim test (FST)", "assay_type": "in vivo", "settings": "0.3 or 3 mg/kg p.o., 14 days"}, "5-HT3A": {"target": "T11, 5-HT3A (Homo sapiens, UniProt P46098)", "T11 construct": "ICE Bioscience ICESTP SafetyOne44 Panel", "T11 sequence (P46098 24-478, species assumed)": "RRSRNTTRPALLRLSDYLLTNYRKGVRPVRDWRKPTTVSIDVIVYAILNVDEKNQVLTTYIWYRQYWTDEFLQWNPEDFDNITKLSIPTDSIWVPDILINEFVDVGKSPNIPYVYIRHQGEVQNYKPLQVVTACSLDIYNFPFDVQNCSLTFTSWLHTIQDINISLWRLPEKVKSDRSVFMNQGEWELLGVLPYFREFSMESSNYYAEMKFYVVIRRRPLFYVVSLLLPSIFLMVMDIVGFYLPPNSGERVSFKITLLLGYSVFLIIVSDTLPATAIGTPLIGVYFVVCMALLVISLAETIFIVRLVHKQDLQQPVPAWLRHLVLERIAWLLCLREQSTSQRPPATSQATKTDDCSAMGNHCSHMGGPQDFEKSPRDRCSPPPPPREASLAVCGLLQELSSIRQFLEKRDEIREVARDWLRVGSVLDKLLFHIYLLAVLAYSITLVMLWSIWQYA", "assay_type": "cell-based"}, "A2A": {"target": "T12, A2A (Homo sapiens, UniProt P29274)", "T12 construct": "purchased ICE Bioscience ICESTP SafetyOne44 Panel", "T12 sequence (P29274 whole entry)": "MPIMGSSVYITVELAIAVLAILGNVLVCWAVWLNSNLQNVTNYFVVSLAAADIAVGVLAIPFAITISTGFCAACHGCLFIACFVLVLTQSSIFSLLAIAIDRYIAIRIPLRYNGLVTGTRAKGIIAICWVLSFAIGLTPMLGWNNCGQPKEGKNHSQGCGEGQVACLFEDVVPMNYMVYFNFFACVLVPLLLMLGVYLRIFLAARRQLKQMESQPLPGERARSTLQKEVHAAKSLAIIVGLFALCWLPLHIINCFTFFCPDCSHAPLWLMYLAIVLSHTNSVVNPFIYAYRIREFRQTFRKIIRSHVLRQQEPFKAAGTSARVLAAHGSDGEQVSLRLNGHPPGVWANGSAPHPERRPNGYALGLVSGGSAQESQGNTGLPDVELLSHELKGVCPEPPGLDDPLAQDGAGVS", "assay_type": "cell-based"}, "in vivo": {"experiment": "in vivo", "settings": "male, C57BL/6, mouse, B/P"}, "5-HT1B": {"target": "T13, 5-HT1B (Homo sapiens, UniProt P28222)", "T13 construct": "purchased ICE Bioscience ICESTP SafetyOne44 Panel", "T13 sequence (P28222 whole entry)": "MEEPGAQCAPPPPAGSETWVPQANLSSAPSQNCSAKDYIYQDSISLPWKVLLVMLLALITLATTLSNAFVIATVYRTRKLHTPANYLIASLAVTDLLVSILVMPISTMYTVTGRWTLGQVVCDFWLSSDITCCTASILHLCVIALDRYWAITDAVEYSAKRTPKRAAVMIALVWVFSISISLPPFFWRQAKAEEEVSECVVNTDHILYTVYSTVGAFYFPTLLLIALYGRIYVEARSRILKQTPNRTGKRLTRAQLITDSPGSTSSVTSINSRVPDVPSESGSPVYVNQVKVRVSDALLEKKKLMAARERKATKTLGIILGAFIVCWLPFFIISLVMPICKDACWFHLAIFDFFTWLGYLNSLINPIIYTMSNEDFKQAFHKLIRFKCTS", "experiment": "cell-based", "settings": "10 μmol/L"}, "TRPC1/4": {"target": "T14, TRPC1/4 (Homo sapiens, UniProt P48995+Q9UBN4)", "T14 construct": "expressed in transfected cells; host or cells: HEK293T", "experiment": "Whole-cell patch-clamp, TRPC1/4 heteromer, 100 nmol/L EA", "assay_type": "cell-based", "settings": "read-out: IC50, TRPC1/4", "source_text": "as §1, §2"}, "[4]": {"settings": "antagonist mode, read-out: Antagonist JDIC-127 @10 μmol/L"}},
  "note": "Where two headings read alike, the source gives them in different places.",
  "data": [
    {"smiles": "O=c1c2c3nc(n2Cc2ccc(Cl)cc2)Oc2ccc(F)c(c2)OCCCCCCn3c(=O)n1CCCO", "note": "[JDIC-127]", "values": [
      {"measurement": "Agonist JDIC-127 @10 μmol/L", "setting": "δOR; agonist mode", "result": 7.81, "unit": "%"},
      {"measurement": "inhibition at 10 µM", "setting": "δOR; antagonist mode, 10 μmol/L, read-out: Antagonist JDIC-127 @10 μmol/L", "result": -21.6, "unit": "%"},
      {"measurement": "percentage of entries into the open arms, EPM", "setting": "C57BL/6J mice [1]", "result": "significantly increased"},
      {"measurement": "AUC0–t", "setting": "C57BL/6, 2 mpk, i.v.", "result": 496, "unit": "h∗ng/mL"},
      {"measurement": "AUC0–∞", "setting": "C57BL/6, 2 mpk, i.v.", "result": 499, "unit": "h∗ng/mL"},
      {"measurement": "AUC0–t", "setting": "C57BL/6, 10 mpk, p.o.", "result": 187, "unit": "h∗ng/mL"},
      {"measurement": "AUC0–∞", "setting": "C57BL/6, 10 mpk, p.o.", "result": 193, "unit": "h∗ng/mL"},
      {"measurement": "CL", "setting": "C57BL/6, 10 mpk, p.o.", "result": 865, "unit": "mL/min/kg"},
      {"measurement": "Vd", "setting": "C57BL/6, 10 mpk, p.o.", "result": 107, "unit": "L/kg"},
      {"measurement": "IC50", "setting": "TRPC1/5", "result": 0.358, "unit": "nM"},
      {"measurement": "Agonist JDIC-127 @10 μmol/L", "setting": "β1; β1, agonist mode", "result": "–1.87%"},
      {"measurement": "inhibition at 10 µM", "setting": "β1; β1, antagonist mode, 10 μmol/L, read-out: Antagonist JDIC-127 @10 μmol/L", "result": 1.84, "unit": "%"},
      {"measurement": "inhibition of hERG activity", "setting": "hERG", "result": "less than 33%"},
      {"measurement": "Agonist JDIC-127 @10 μmol/L", "setting": "CB1; CB1, agonist mode", "result": 33.32, "unit": "%"},
      {"measurement": "inhibition at 10 µM", "setting": "CB1; CB1, antagonist mode, 10 μmol/L, read-out: Antagonist JDIC-127 @10 μmol/L", "result": -9.83, "unit": "%"},
      {"measurement": "Agonist JDIC-127 @10 μmol/L", "setting": "5-HT2B; agonist mode", "result": 0.67, "unit": "%"},
      {"measurement": "inhibition at 10 µM", "setting": "5-HT2B; [4]", "result": -0.45, "unit": "%"},
      {"measurement": "inhibition at 10 µM", "setting": "TRPM3", "result": "< 33", "unit": "%"},
      {"measurement": "inhibition at 10 µM", "setting": "μOR", "result": -16.9, "unit": "%"},
      {"measurement": "percentage of entries in the open arms, EPM", "setting": "C57BL/6J mice [2]", "result": "significantly increased"},
      {"measurement": "Agonist JDIC-127 @10 μmol/L", "setting": "CB2; CB2, agonist mode", "result": 26.01, "unit": "%"},
      {"measurement": "inhibition at 10 µM", "setting": "CB2; CB2, antagonist mode, 10 μmol/L, read-out: Antagonist JDIC-127 @10 μmol/L", "result": -0.84, "unit": "%"},
      {"measurement": "Agonist JDIC-127 @ 5 μmol/L", "setting": "NR1/NR2B; agonist mode", "result": 1.53, "unit": "%"},
      {"measurement": "Antagonist JDIC-127 @5 μmol/L", "setting": "NR1/NR2B; antagonist mode", "result": 17.19, "unit": "%"},
      {"measurement": "inhibition at 10 µM", "setting": "NET", "result": -5.84, "unit": "%"},
      {"measurement": "Agonist JDIC-127 @10 μmol/L", "setting": "D1; D1, agonist mode", "result": "–1.54%"},
      {"measurement": "inhibition at 10 µM", "setting": "D1; D1, antagonist mode, 10 μmol/L, read-out: Antagonist JDIC-127 @10 μmol/L", "result": 8.89, "unit": "%"},
      {"measurement": "effect on the 44 safety targets", "setting": "[3]", "result": "no significant inhibitory or stimulatory effects"},
      {"measurement": "immobility time in FST", "setting": "C57BL/6 mice", "result": "significantly reduced"},
      {"measurement": "Agonist JDIC-127 @ 5 μmol/L", "setting": "5-HT3A; agonist mode", "result": 0.39, "unit": "%"},
      {"measurement": "Antagonist JDIC-127 @5 μmol/L", "setting": "5-HT3A; antagonist mode", "result": 17.73, "unit": "%"},
      {"measurement": "Agonist JDIC-127 @10 μmol/L", "setting": "A2A; agonist mode", "result": "–1.55%"},
      {"measurement": "Antagonist JDIC-127 @10 μmol/L", "setting": "A2A; antagonist mode", "result": "–2.78%"},
      {"measurement": "Kp", "setting": "in vivo; iv, 2 mg/kg, 2 min", "result": 1.1},
      {"measurement": "Kp", "setting": "in vivo; iv, 2 mg/kg, 45 min", "result": 3.85},
      {"measurement": "Kp", "setting": "in vivo; iv, 2 mg/kg, 180 min", "result": 7.4},
      {"measurement": "Kp", "setting": "in vivo; po, 10 mg/kg, 2 min", "result": 3.48},
      {"measurement": "Kp", "setting": "in vivo; po, 10 mg/kg, 45 min", "result": 2.51},
      {"measurement": "Kp", "setting": "in vivo; po, 10 mg/kg, 180 min", "result": 0.32},
      {"measurement": "Agonist JDIC-127 @10 μmol/L", "setting": "5-HT1B; agonist mode", "result": 10.95, "unit": "%"},
      {"measurement": "inhibition at 10 µM", "setting": "5-HT1B; [4]", "result": -14.7, "unit": "%"},
      {"measurement": "IC50", "setting": "TRPC1/4", "result": 1.86, "unit": "nM"}
    ]}
  ]
}
